Experimental data from patent US8691864B2, “Agents useful for reducing amyloid precursor protein and treating dementia and methods of use thereof” (priority 2000, dated 2014).

Tests used:
secreted APP = assay: ELISA for secreted APP in SHSY5Y cells; format: cell-based, human; settings: 16 hours
Procedure: (§1) An enzyme-linked immunosorbent assay was developed to detect secreted APP in SHSY5Y cells, a human neuroblastoma cell line. The purpose of the screen was to discover small molecules that inhibit APP protein synthesis in SHSY5Y cells. SHSY5Y cells were plated at 1×10^5 cells/well in […] of DMEM containing 0.5% heat inactivated FBS in 96 well tissue culture treated plates (Falcon no. 35 3072). 144 MES compounds were tested at final concentrations of […] in 0.1% DMSO. Compounds were added and the plates incubated for 16 hours at 37° C./5% CO2. Maxisorp plates (Nunc no. 437958) were coated overnight with […] capture antibody (Biosource 44-100) diluted in Ca^++ and Mg^++ free PBS. Biosource 44-100 is a mouse mAb that recognizes aa 1-100 of human APP. Plates were blocked for 30 minutes with 1 mg/mL BSA in Ca^++ and Mg^++ free PBS. Plates were washed 3× with wash buffer (Ca^++ and Mg^++ free PBS+0.01% Tween20). […] of supernatants and non-cultured medium controls were transferred from culture plates to ELISA plates. Culture plates were reserved for toxicity analysis. Supernatants were incubated for 4 hours at RT on a plate shaker. After supernatant incubation, plates were washed 3×. Primary antibody (Signet Clone 6E-10 biotin) was added at 0.3125 mg/mL and incubated overnight at 4° C. The recognition site of 6E-10 is aa 1-17 of Ab. For detection, a 1:3000 dilution of horseradish peroxidase conjugated streptavidin (Endogen no. N-100) was incubated for 30 minutes. Plates were washed 3×. Enzyme activity was assessed by incubation with […] TMB substrate solution (Moss no. TMB-US) for 20 minutes. The reaction was stopped by the addition of […] 0.18M sulfuric acid. Optical density was read at 450 nm on Wallac Victor2 plate reader. During the first incubation, toxicity was determined using MTS assay, Cell Titer96 AQ reagent (Promega no. G5430). The background values from the non-cultured medium control were subtracted from the sample values and secreted APP levels and toxicity were expressed as % vehicle control. Of the 144 MES compounds screened, 12 inhibited secreted APP as determined by ELISA. The results are depicted in FIGS. 13A-M.
(§2) Using the experimental procedure outlined above, APP secretion and toxicity studies were performed on several other non-carbamate compounds, and the results are shown in Tables 3 and 4. The compound structures are provided in Table 2 in the application, which are identified by their MES number.

SH-SY-5Y Cells = assay: MTS toxicity assay in SHSY5Y cells; format: cell-based, human
Procedure: as §1, §2

Compound | APP Secretion by SH-SY-5Y Cells (secreted APP; Dose 2 uM) [% vehicle control] | APP Secretion by SH-SY-5Y Cells (secreted APP; Dose 6 uM) [% vehicle control] | APP Secretion by SH-SY-5Y Cells (secreted APP; Dose 20 uM) [% vehicle control] | APP Toxicity SH-SY-5Y Cells (MTS assay) (SH-SY-5Y Cells; Dose 2 uM) [% vehicle control] | APP Toxicity SH-SY-5Y Cells (MTS assay) (SH-SY-5Y Cells; Dose 6 uM) [% vehicle control] | APP Toxicity SH-SY-5Y Cells (MTS assay) (SH-SY-5Y Cells; Dose 20 uM) [% vehicle control] | APP Secretion by SH-SY-5Y Cells (secreted APP; Dose 0.08 uM) [% vehicle control] | APP Secretion by SH-SY-5Y Cells (secreted APP; Dose 0.25 uM) [% vehicle control] | APP Secretion by SH-SY-5Y Cells (secreted APP; Dose 0.74 uM) [% vehicle control] | APP Toxicity SH-SY-5Y Cells (MTS assay) (SH-SY-5Y Cells; Dose 0.08 uM) [% vehicle control] | APP Toxicity SH-SY-5Y Cells (MTS assay) (SH-SY-5Y Cells; Dose 0.25 uM) [% vehicle control] | APP Toxicity SH-SY-5Y Cells (MTS assay) (SH-SY-5Y Cells; Dose 0.74 uM) [% vehicle control] | APP Secretion by SH-SY-5Y Cells (secreted APP; Dose 2 uM, listed as 9294) [% vehicle control] | APP Secretion by SH-SY-5Y Cells (secreted APP; Dose 6 uM, listed as 9294) [% vehicle control] | APP Secretion by SH-SY-5Y Cells (secreted APP; Dose 20 uM, listed as 9294) [% vehicle control] | APP Toxicity SH-SY-5Y Cells (MTS assay) (SH-SY-5Y Cells; Dose 2 uM, listed as 9294) [% vehicle control] | APP Toxicity SH-SY-5Y Cells (MTS assay) (SH-SY-5Y Cells; Dose 6 uM, listed as 9294) [% vehicle control] | APP Toxicity SH-SY-5Y Cells (MTS assay) (SH-SY-5Y Cells; Dose 20 uM, listed as 9294) [% vehicle control]
COc1ccc2c(c1)[C@]1(C)CCN(Cc3ccccc3)C1N2 (stereo partly drawn) [MES 9278] | 118.4 | 116.8 | 120.6 | 97.63 | 98.4 | 96.33 | – | – | – | – | – | – | – | – | – | – | – | –
C[C@@]12CCN(Cc3ccccc3)C1Nc1ccc(O)cc12 (stereo partly drawn) [MES 9279] | 43.27 | 42.37 | 18.4 | 68.63 | 46.67 | 38.63 | 97.8 | 98.4 | 97 | 102.9 | 101.1 | 100.1 | – | – | – | – | – | –
CC(Br)C(=O)N(C)c1ccc(O)cc1 (stereo not drawn) [MES 9291, Propionanilde] | 100.1 | 96.9 | 67.8 | 102.4 | 99.87 | 99 | 98.2 | 99.5 | 99.7 | 99.1 | 100.5 | 97.1 | – | – | – | – | – | –
CC1C(=O)N(C)c2ccc(O)cc21 (stereo not drawn) [MES 9292, 1,3-Dimethyl-5-hydroxyoxindole] | 106.15 | 99.55 | 100.15 | 102.85 | 103.75 | 104.9 | – | – | – | – | – | – | – | – | – | – | – | –
COc1ccc2c(c1)C(C)C(=O)N2C (stereo not drawn) [MES 9293] | 97.8 | 102.75 | 94.45 | 100.8 | 99.85 | 101.95 | – | – | – | – | – | – | – | – | – | – | – | –
COc1ccc2c(c1)[C@@]1(C)CCNC1N2C (stereo partly drawn) [MES 9294] | – | – | – | – | – | – | – | – | – | – | – | – | 105.25 | 90 | 111 | 99.9 | 98.3 | 100.2
COc1ccc2c(c1)C1(C)CCSC1N2C (stereo not drawn) [MES 9301] | 108.45 | 106.1 | 111.15 | 99.15 | 97.35 | 95.9 | – | – | – | – | – | – | – | – | – | – | – | –
COc1ccc2c(c1)[C@]1(C)CCSC1N2C (stereo partly drawn) [MES 9302] | 100.35 | 105.4 | 105.8 | 100.7 | 101.2 | 99.05 | – | – | – | – | – | – | – | – | – | – | – | –
COc1ccc2c(c1)C1(c3ccccc3)CCNC1N2C (stereo not drawn) [MES 9305] | 106.2 | 102.4 | 102.2 | 95.8 | 96.73 | 94.83 | – | – | – | – | – | – | – | – | – | – | – | –
